Structures can show the parent of a compound that is named as a salt.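 In this assay, cells in 96-well plates receive the compound at five concentrations for 48 hours. Endpoints are linearly interpolated between the surrounding concentrations. The concentration for 50% growth inhibition is given as GI50.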 Active and inactive are the calls of the source. No stated cut-off is given here; in the data, active = GI50 up to about 1.1 µM and inactive = higher.
Tests used:
Experiment in all cases: inhibition of tumour cell growth, NCI panel, 48 h
[1] = test system: K562
[2] = test system: NCI-H460
[3] = test system: CAKI-1
[4] = test system: EKVX
[5] = test system: HOP-62
[6] = test system: SK-OV-3
[7] = test system: SF-268
[8] = test system: SW-620
[9] = test system: Malme-3M
[10] = test system: SK-MEL-2
[11] = test system: M14
[12] = test system: OVCAR-4
[13] = test system: OVCAR-5
[14] = test system: COLO 205
[15] = test system: MOLT-4
[16] = test system: SK-MEL-28

Measured: GI50

CC1CC2C(=O)NC(=O)C2c2[nH]c3ccccc3c21 (stereo not given)
inactive: [1] 91.2 µM | [2] > 100 µM | [3] 42.8 µM | [4] > 100 µM | [5] 74 µM | [6] > 100 µM | [7] > 100 µM | [8] > 100 µM | [9] > 100 µM | [10] > 100 µM | [11] > 100 µM | [12] 92.7 µM | [13] > 100 µM | [14] > 100 µM | [15] > 100 µM

CSc1nc(Cl)c(Br)c(Sc2nc(N)nc3nc[nH]c23)n1
inactive: [1] 3.34 µM | [2] 5.07 µM | [3] 3.42 µM | [16] 11 µM | [5] 2 µM | [7] 3.44 µM | [8] 7.43 µM | [9] 13.4 µM | [10] 4.78 µM | [11] 4.56 µM | [12] 11 µM | [13] 11.8 µM | [14] 15.7 µM | [15] 4.2 µM

CC1CC2(CCC1OCc1ccccc1)OCCO2 (stereo not given)
inactive: [1] > 100 µM | [2] > 100 µM | [3] > 100 µM | [4] > 100 µM | [5] > 100 µM | [6] > 100 µM | [8] > 100 µM | [9] > 100 µM | [10] > 100 µM | [11] > 100 µM | [12] > 100 µM | [14] > 100 µM | [15] > 100 µM

CC(=O)O[C@H]1CCC2[C@@H]3CCC4Nc5[nH]ncc5C[C@]4(C)C3CC[C@@]21C (stereo not given in full)
inactive: [1] 36.3 µM | [2] > 100 µM | [3] 45.1 µM | [4] 35.1 µM | [5] > 100 µM | [6] > 100 µM | [7] > 100 µM | [8] 36.8 µM | [9] 32.7 µM | [10] > 100 µM | [11] 21.4 µM | [12] 81.1 µM | [13] > 100 µM | [14] 37.2 µM | [15] 22.9 µM

CC(NC(C)(C)C)C(=O)c1cccc(Cl)c1 (stereo not given) [BUPROPION HYDROCHLORIDE]
inactive: [1] > 100 µM | [2] > 100 µM | [3] > 100 µM | [16] > 100 µM | [4] > 100 µM | [5] > 100 µM | [6] > 100 µM | [7] > 100 µM | [8] > 100 µM | [9] > 100 µM | [10] > 100 µM | [11] > 100 µM | [12] > 100 µM | [14] > 100 µM | [15] > 100 µM

COC(=O)C1C(=O)NC2(C)CC1c1ccccc1O2 (stereo not given)
inactive: [1] > 100 µM | [2] > 100 µM | [3] > 100 µM | [16] > 100 µM | [5] > 10 µM | [6] > 100 µM | [7] > 100 µM | [8] > 100 µM | [9] > 100 µM | [10] > 100 µM | [11] > 10 µM | [12] > 100 µM | [13] > 100 µM | [15] > 100 µM

C[n+]1cc(C(O)c2ccc3c(c2)OCO3)c2ccccc2c1 (stereo not given)
inactive: [1] 25.1 µM | [2] 40.3 µM | [3] 13.9 µM | [4] 27 µM | [5] 37.7 µM | [6] 45.5 µM | [7] 28.6 µM | [8] 44.2 µM | [9] 25.4 µM | [10] 26.2 µM | [11] 25.4 µM | [13] > 100 µM | [14] 33.2 µM | [15] 17.9 µM

Reference: ChEMBL document CHEMBL1201862, “PubChem BioAssay data set” (2004)
